Assay results taken from patent publication US12679839B2, “Cyclin-dependent kinase 7 (CDK7) non-covalent inhibitors” (JANSSEN PHARMACEUTICA NV, priority 2020, dated 2026).

Experiments:
[1] = molecular target: T1, CDK7/Cyclin H/MAT-1 complex (Homo sapiens, UniProt P50613); assay: Flint assay, end-point fluorescence (5 nM CDK7/Cyclin H/MAT-1 complex); format: biochemical; conditions: for IC50: read-out: CDK7 (5 nM) pIC50 (converted)
T1 construct: Human CDK7 (amino acids 1-346); His6 (N); TEV protease cleavage site (N); made in house; host or cells: baculovirus-SF9 insect cells
Procedure: Human CDK7 (amino acids 1-346) containing an N-terminal His6-tag followed by a tobacco etch virus (TEV) protease cleavage site, human MAT1 (amino acids 1-309) and human cyclin H (amino acids 1-323) were co-expressed in the baculovirus-SF9 insect cell expression system to generate a trimeric complex. Cell pellets were collected 72 h post-infection and were resuspended by Dounce homogenization in 20 mM Hepes-NaOH (pH 8.0), 300 mM NaCl, 10% glycerol, 2 mM dithiothreitol DTT), and 20 mM Imidazole supplemented with cOmplete™ Protease Inhibitor Cocktail (Roche) and 25 U/mL Benzonase® Nuclease HC according to the manufacturer's instructions. Cells were lysed by passing through a Microfluidics M110Y Microfluidizer 3 times at 600 kPa followed by centrifugation at 38,000×g at 4° C. for 1 hour. The supernatant was loaded onto a pre-equilibrated HisTrap HP column and eluted in 20 mM Hepes-NaOH (pH 8.0), 50 mM NaCl, 10% glycerol, 2 mM DTT, and 400 mM Imidazole. The eluate was further purified by gel filtration on a Superdex S200 16/60 column and eluted with 20 mM Hepes-NaOH (pH 7.5), 50 mM NaCl, 10% Glycerol, 2 mM DTT. Fractions containing a trimeric complex of CDK7, cyclin H, and MAT1 in a 1:1:1 ratio were pooled and concentrated to 3 mg/mL in a 10 kDa MWCO concentrator, and diluted to a final concentration of 1.6 mg/mL in 11.1 mM Hepes-NaOH (pH 8.0), 27.8 mM NaCl, 1.1 mM DTT and 50% glycerol.
Compounds with potencies approaching the limit of detection of the assay (IC50≤10 nM) were further assessed in a more sensitive fluorescence end-point assay.
[formula] where νo is the rate in the absence of inhibitor, νmin is the rate at highest inhibitor concentration, and h is the Hill coefficient. Flint Assay (5 nM CDK7/Cyclin H/MAT-1 Complex)
The continuous absorbance assay was converted to an end-point fluorescence assay following the NADH fluorescence signal decrease at the excitation and emission wavelengths of 340 nm and 440 nm, respectively.
Under the same concentrations of substrates and coupling reagents used in the absorbance assay, the fluorescence assay was performed at a reduced concentration of the CDK7/Cyclin H/MAT-1 complex of 5 nM (final concentration) with a reaction time of 24 hours. The percent of inhibition was calculated by the following equation. Percent of inhibition=(Sample−NC)/(PC−NC)*100 where NC is the mean if negative control (reaction without inhibitor), and PC is the mean of positive control (reaction with complete inhibition).
Dosing curves were fitted using the following equation to obtain IC50: Y=Bottom+(Top−Bottom)/(1+10^((log IC50−X)*Hill slope)) where X=log10 of the compound concentration; top and bottom can be defined by PC and NC respectively. Imaging-Based Cellular RNA PolII Ser5 Phosphorylation Assay

[2] = system: RNA polymerase II Serine 5 phosphorylation (Rpb1 CTD), downstream substrate of CDK7; assay: Imaging-based cellular RNA PolII Ser5 phosphorylation assay in A549 cells; format: cell-based, human; conditions: challenged with compound for 3 hours; for IC50: Homo sapiens, A549, 3 h, read-out: pRNA polII Ser5 (A549) pIC50 (converted)
Outline: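 A549 cells seeded 20 h in DMEM with 1% FBS, then exposed to compound for 3 h at 37 °C; fixed, methanol-permeabilized and immunostained for phospho-Rpb1 CTD Ser5, read by automated imaging. Signal normalized to DMSO (high) and 10 μM LDC4297 (low) controls; IC50 from four-parameter fit of % control vs concentration.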

T1 sequence (P50613 whole entry, the tested form may be a part): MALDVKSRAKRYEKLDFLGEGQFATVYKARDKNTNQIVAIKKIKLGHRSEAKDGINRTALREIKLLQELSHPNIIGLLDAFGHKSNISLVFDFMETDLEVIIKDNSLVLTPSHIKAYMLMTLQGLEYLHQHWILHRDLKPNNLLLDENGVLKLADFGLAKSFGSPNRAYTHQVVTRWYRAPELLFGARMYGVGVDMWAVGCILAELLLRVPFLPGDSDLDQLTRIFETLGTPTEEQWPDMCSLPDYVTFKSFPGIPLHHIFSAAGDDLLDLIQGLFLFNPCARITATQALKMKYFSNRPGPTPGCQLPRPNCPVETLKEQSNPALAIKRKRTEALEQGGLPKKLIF
T1 sequence (P51946 whole entry partner, the tested form may be a part): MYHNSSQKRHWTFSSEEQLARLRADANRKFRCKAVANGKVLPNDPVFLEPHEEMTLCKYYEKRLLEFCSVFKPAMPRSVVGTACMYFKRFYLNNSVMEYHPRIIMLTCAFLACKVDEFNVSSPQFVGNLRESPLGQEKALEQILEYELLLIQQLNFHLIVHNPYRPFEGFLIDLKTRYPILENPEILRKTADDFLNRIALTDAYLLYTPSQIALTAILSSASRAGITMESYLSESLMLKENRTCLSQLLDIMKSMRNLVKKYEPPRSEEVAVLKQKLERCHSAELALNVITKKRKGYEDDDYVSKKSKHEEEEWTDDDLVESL
T1 sequence (P51948 whole entry partner, the tested form may be a part): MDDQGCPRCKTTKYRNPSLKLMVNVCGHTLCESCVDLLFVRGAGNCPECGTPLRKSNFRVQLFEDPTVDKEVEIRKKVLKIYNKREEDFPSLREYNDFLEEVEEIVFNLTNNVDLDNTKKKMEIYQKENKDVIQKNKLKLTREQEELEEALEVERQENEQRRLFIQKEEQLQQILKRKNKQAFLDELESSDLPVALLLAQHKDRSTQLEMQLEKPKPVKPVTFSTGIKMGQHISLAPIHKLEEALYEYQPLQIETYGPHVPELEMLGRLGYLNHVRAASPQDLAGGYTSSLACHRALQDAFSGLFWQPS

Cc1ncc(CNc2ncc3c(n2)CN(C(=O)[C@H]2CCN(C)C[C@@H]2c2ccccc2)[C@H](C)C3)[nH]1 [Compound 52]
CDK7 (5 nM) pIC50 [1]: 7.9 | IC50 [2]: 2450 nM

C[C@@H]1Cc2cnc(NC[C@H]3CCOC3)nc2CN1C(=O)[C@H]1CCN(C)C[C@@H]1c1ccccc1 [Compound 53]
CDK7 (5 nM) pIC50 [1]: 7.99 | IC50 [2]: 575 nM

C[C@@H]1Cc2cnc(NCc3cc(C(F)F)n(C)n3)nc2CN1C(=O)[C@H]1CCN(C)C[C@@H]1c1ccccc1 [Compound 56]
CDK7 (5 nM) pIC50 [1]: 7.44 | IC50 [2]: 5130 nM

C[C@@H]1Cc2cnc(NCc3cnn(C)c3)nc2CN1C(=O)[C@H]1CCN(C)C[C@@H]1c1ccccc1 [Compound 57]
CDK7 (5 nM) pIC50 [1]: 7.53 | IC50 [2]: 2950 nM

CCn1ccc(CNc2ncc3c(n2)CN(C(=O)[C@H]2CCN(C)C[C@@H]2c2ccccc2)[C@H](C)C3)n1 [Compound 58]
CDK7 (5 nM) pIC50 [1]: 8.63 | IC50 [2]: 22.9 nM

C[C@@H]1Cc2cnc(N[C@H]3CCC[C@H](O)C3)nc2CN1C(=O)[C@H]1CCN(C)C[C@@H]1c1ccccc1 [Compound 59]
CDK7 (5 nM) pIC50 [1]: 8.28 | IC50 [2]: 141 nM

C[C@@H]1Cc2cnc(NCc3ccn(C)c3)nc2CN1C(=O)[C@H]1CCN(C)C[C@@H]1c1ccccc1 [Compound 60]
IC50 [1]: 3.55 nM | IC50 [2]: 214 nM

Cc1cn(C)nc1CNc1ncc2c(n1)CN(C(=O)[C@H]1CCN(C)C[C@@H]1c1ccccc1)[C@H](C)C2 [Compound 61]
CDK7 (5 nM) pIC50 [1]: 7.97 | IC50 [2]: 912 nM

C[C@@H]1Cc2cnc(NC[C@@H]3CCOC3)nc2CN1C(=O)[C@H]1CCN(C)C[C@@H]1c1ccccc1 [Compound 62]
CDK7 (5 nM) pIC50 [1]: 8.33 | IC50 [2]: 617 nM

Cc1cc(CNc2ncc3c(n2)CN(C(=O)[C@H]2CCN(C)C[C@@H]2c2ccccc2)[C@H](C)C3)nn1C [Compound 65]
CDK7 (5 nM) pIC50 [1]: 7.33 | IC50 [2]: 6610 nM

CC(C)n1ccc(CNc2ncc3c(n2)CN(C(=O)[C@H]2CCN(C)C[C@@H]2c2ccccc2)[C@H](C)C3)n1 [Compound 66]
CDK7 (5 nM) pIC50 [1]: 8.56 | IC50 [2]: ~28.2 nM

C[C@@H]1Cc2cnc(NC[C@@H]3CCCO3)nc2CN1C(=O)[C@H]1CCN(C)C[C@@H]1c1ccccc1 [Compound 67]
IC50 [1]: 16.6 nM | IC50 [2]: 1320 nM

C[C@@H]1Cc2cnc(NC3CCC(OC(F)F)CC3)nc2CN1C(=O)[C@H]1CCN(C)C[C@@H]1c1ccccc1 (stereo partly shown) [Compound 69]
CDK7 (5 nM) pIC50 [1]: 8.57 | IC50 [2]: 58.9 nM

[2H]C([2H])(Nc1ncc2c(n1)CN(C(=O)[C@H]1CCN(C)C[C@@H]1c1ccccc1)[C@H](C)C2)c1ccccc1 [Compound 70]
IC50 [1]: 1.78 nM | IC50 [2]: 148 nM

C[C@@H]1Cc2cnc(N[C@@H](CO)c3ccccc3)nc2CN1C(=O)[C@H]1CCN(C)C[C@@H]1c1ccccc1 [Compound 71]
CDK7 (5 nM) pIC50 [1]: 8.54 | IC50 [2]: 120 nM

C[C@@H]1Cc2cnc(N[C@H](CO)c3ccccc3)nc2CN1C(=O)[C@H]1CCN(C)C[C@@H]1c1ccccc1 [Compound 72]
CDK7 (5 nM) pIC50 [1]: 8.22 | IC50 [2]: 200 nM

C[C@@H]1Cc2cnc(Nc3cnn(CC(C)(C)O)c3)nc2CN1C(=O)[C@H]1CCN(C)C[C@@H]1c1ccccc1 [Compound 74]
CDK7 (5 nM) pIC50 [1]: 8.0 | IC50 [2]: 178 nM

C[C@@H]1Cc2cnc(Nc3ccnc(C(F)F)c3)nc2CN1C(=O)[C@H]1CCN(C)C[C@@H]1c1ccccc1 [Compound 75]
CDK7 (5 nM) pIC50 [1]: 8.04 | IC50 [2]: 57.5 nM

C[C@@H]1Cc2cnc(Nc3cnn4c3CCCC4)nc2CN1C(=O)[C@H]1CCN(C)C[C@@H]1c1ccccc1 [Compound 77]
CDK7 (5 nM) pIC50 [1]: 7.88 | IC50 [2]: 316 nM

Cc1cc(Nc2ncc3c(n2)CN(C(=O)[C@H]2CCN(C)C[C@@H]2c2ccccc2)[C@H](C)C3)ccn1 [Compound 78]
CDK7 (5 nM) pIC50 [1]: 8.37 | IC50 [2]: ~57.5 nM

C[C@@H]1Cc2cnc(Nc3ccnn3C)nc2CN1C(=O)[C@H]1CCN(C)C[C@@H]1c1ccccc1 [Compound 79]
CDK7 (5 nM) pIC50 [1]: 7.78 | IC50 [2]: 2290 nM

C[C@@H]1Cc2cnc(Nc3cnn(C)c3)nc2CN1C(=O)[C@H]1CCN(C)C[C@@H]1c1ccccc1 [Compound 82]
CDK7 (5 nM) pIC50 [1]: 8.67 | IC50 [2]: ~46.8 nM

CC(C)n1cc(Nc2ncc3c(n2)CN(C(=O)[C@H]2CCN(C)C[C@@H]2c2ccccc2)[C@H](C)C3)cn1 [Compound 89]
CDK7 (5 nM) pIC50 [1]: <6.7 | IC50 [2]: 70.8 nM

C[C@@H]1Cc2cnc(NC(C)(C)c3cnn(C)c3)nc2CN1C(=O)[C@H]1CCN(C)C[C@@H]1c1ccccc1 [Compound 90]
CDK7 (5 nM) pIC50 [1]: 7.57 | IC50 [2]: 5010 nM

Cc1cccc([C@H]2CN(C)CC[C@@H]2C(=O)N2Cc3nc(NC4CCOCC4)ncc3C[C@H]2C)c1 [Compound 93]
CDK7 (5 nM) pIC50 [1]: 8.52 | IC50 [2]: ~67.6 nM

C[C@@H]1Cc2cnc(NC3CCOCC3)nc2CN1C(=O)[C@H]1CCN(C)C[C@@H]1c1ccc(Cl)c(F)c1 [Compound 122b]
CDK7 (5 nM) pIC50 [1]: 8.5 | IC50 [2]: ~63.1 nM

Cc1cccc([C@H]2CN(C(C)C)CC[C@@H]2C(=O)N2Cc3nc(NC4CCOCC4)ncc3C[C@H]2C)c1 [Compound 166]
CDK7 (5 nM) pIC50 [1]: 7.85 | IC50 [2]: ~51.3 nM

CO[C@H]1CC[C@H](Nc2cc3c(cn2)C[C@H](C)N(C(=O)[C@@H]2CCN(C)C[C@H]2c2cccc(C)c2)C3)CC1 [Compound 177a]
IC50 [1]: 12.3 nM | pRNA polII Ser5 (A549) pIC50 [2]: 6.98

CO[C@H]1CC[C@H](Nc2cc3c(cn2)C[C@H](C)N(C(=O)[C@H]2CCN(C)C[C@@H]2c2cccc(C)c2)C3)CC1 [Compound 177c]
IC50 [1]: 22.4 nM | IC50 [2]: ~97.7 nM

C[C@@H]1c2nc(NC3CCOCC3)ncc2[C@@H](C)CN1C(=O)[C@H]1CCN(C)C[C@@H]1c1ccccc1 [Compound 180a]
CDK7 (5 nM) pIC50 [1]: 8.68 | IC50 [2]: ~32.4 nM

CO[C@H]1CC[C@H](Nc2ncc3c(n2)CN(C(=O)[C@H]2CCN(C)C[C@@H]2c2ccccc2)C2(CC2)C3)CC1 [Compound 192]
CDK7 (5 nM) pIC50 [1]: 6.84 | IC50 [2]: 2880 nM

CN1CC[C@H](C(=O)N2Cc3nc(NC4CCOCC4)ncc3C(C)(C)C2)[C@@H](c2ccccc2)C1 [Compound 193]
CDK7 (5 nM) pIC50 [1]: 7.05 | IC50 [2]: 3630 nM

CN1CC[C@H](C(=O)N2Cc3nc(NC4CCOCC4)ncc3[C@@H]3C[C@@H]32)[C@@H](c2ccccc2)C1 [Compound 199]
CDK7 (5 nM) pIC50 [1]: 8.27 | IC50 [2]: ~58.9 nM

CN1CC[C@H](C(=O)N2Cc3nc(Nc4cnn(C)c4)ncc3[C@@H]3C[C@@H]32)[C@@H](c2ccccc2)C1 [Compound 200]
CDK7 (5 nM) pIC50 [1]: 7.77 | IC50 [2]: 324 nM

CO[C@H]1CC[C@H](Nc2ncc3c(n2)CN(C(=O)[C@H]2CCN(C)C[C@@H]2c2ccccc2)[C@H]2C[C@@H]32)CC1 [Compound 201]
CDK7 (5 nM) pIC50 [1]: 8.16 | IC50 [2]: ~19.5 nM

C[C@@H]1Cc2cnc(NC3CCOCC3)nc2CN1C(=O)N1CCN(C)C[C@@H]1c1ccccc1 [Compound 204a]
CDK7 (5 nM) pIC50 [1]: 8.17 | IC50 [2]: 269 nM

CC(C)N1CCN(C(=O)N2Cc3nc(NC4CCOCC4)ncc3C[C@H]2C)[C@@H](c2ccccc2)C1 [Compound 206]
CDK7 (5 nM) pIC50 [1]: 8.19 | IC50 [2]: 234 nM

C[C@@H]1Cc2cnc(NC3CCN(S(C)(=O)=O)CC3)nc2CN1C(=O)N1CCN(C)C[C@@H]1c1ccccc1 [Compound 209]
CDK7 (5 nM) pIC50 [1]: 8.48 | IC50 [2]: 209 nM

C[C@@H]1Cc2cnc(NC3CCN(S(=O)(=O)C4CC4)CC3)nc2CN1C(=O)N1CCN(C)C[C@@H]1c1ccccc1 [Compound 210]
CDK7 (5 nM) pIC50 [1]: 8.48 | IC50 [2]: 110 nM

C[C@@H]1Cc2cnc(NC3CCN(S(=O)(=O)N(C)C)CC3)nc2CN1C(=O)N1CCN(C)C[C@@H]1c1ccccc1 [Compound 211]
CDK7 (5 nM) pIC50 [1]: 7.88 | IC50 [2]: 724 nM

C[C@@H]1Cc2cnc(NCc3ccn(C)n3)nc2CN1C(=O)N1CCN(C)C[C@@H]1c1ccccc1 [Compound 213]
CDK7 (5 nM) pIC50 [1]: 6.9 | IC50 [2]: 1380 nM
